Assay results published in ChEMBL document CHEMBL1201862, “PubChem BioAssay data set” (2004).
Values belong to the compound of their own block, whether it stands above or below them. Active and inactive are the calls of the source.

Assays:
[1] = target: Peroxisome proliferator-activated receptor gamma/Nuclear receptor corepressor 2 (Homo sapiens, UniProt P37231+Q9Y618); test: Counterscreen for NR2E3 inverse agonists: TR-FRET-based biochemical high throughput dose response assay to identify inverse agonists of the interaction between peroxisome proliferator-activated receptor gamma (PPARg) and nuclear receptor co-repressor 2 (NCOR2).; assay type: functional
Cytochrome P450 2C9 = Cytochrome P450 2C9 (Homo sapiens, UniProt P11712)
[2] = target: ADP-ribosylation factor GTPase-activating protein 1 (Rattus norvegicus, UniProt Q62848); test: Fluorescence polarization-based biochemical high throughput dose response screening assay to identify inhibitors of ADP-ribosylation factor GTPase activating protein 1 (ARFGAP1).; assay type: functional
Cytochrome P450 2C19 [3] = target: T1, Cytochrome P450 2C19 (Homo sapiens, UniProt P33261); test: Cytochrome panel assay with activity outcomes. Panel member name: p450-cyp2c19 Compounds with AC50 equal or less than 10 uM are considered active; assay type: functional
[4] = target: Photoreceptor-specific nuclear receptor (Homo sapiens, UniProt Q9Y5X4); test: ligands suppressing NR2E3 nuclear receptor activity – biochemical, TR-FRET, dose response (AID 463256); assay type: functional
[5] = target: Transitional endoplasmic reticulum ATPase (Homo sapiens, UniProt P55072, C522A); test: Luminescence counterscreen assay for p97 inhibitors: dose response biochemical high throughput screening assay to identify inhibitors of the C522A mutant p97 ATPase: synthesized compounds. [Related pubchem assays: 1481, 1517, 1551 ]
[6] = target: Transitional endoplasmic reticulum ATPase (Homo sapiens, UniProt P55072); test: Luminescence dose response biochemical high throughput screening assay for inhibitors of the p97 ATPase: synthesized compounds. [Related pubchem assays: 1481, 1517 ]
[7] = target: T2, Heat shock factor protein 1 (Mus musculus, UniProt P38532); test: enhancement of HSF1-driven luciferase signal – cell-based, NIH3T3, luminescence, dose retest, confirmation (AID 435004); assay type: functional;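 also: stress induced by proteasome inhibitor MG132 added 30 min after compound; luciferase reporter driven by HSF1 response element in NIH3T3 cells; actives raise luminescence as potentiators of the MG132 stress response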
T2 sequence (P38532 whole entry): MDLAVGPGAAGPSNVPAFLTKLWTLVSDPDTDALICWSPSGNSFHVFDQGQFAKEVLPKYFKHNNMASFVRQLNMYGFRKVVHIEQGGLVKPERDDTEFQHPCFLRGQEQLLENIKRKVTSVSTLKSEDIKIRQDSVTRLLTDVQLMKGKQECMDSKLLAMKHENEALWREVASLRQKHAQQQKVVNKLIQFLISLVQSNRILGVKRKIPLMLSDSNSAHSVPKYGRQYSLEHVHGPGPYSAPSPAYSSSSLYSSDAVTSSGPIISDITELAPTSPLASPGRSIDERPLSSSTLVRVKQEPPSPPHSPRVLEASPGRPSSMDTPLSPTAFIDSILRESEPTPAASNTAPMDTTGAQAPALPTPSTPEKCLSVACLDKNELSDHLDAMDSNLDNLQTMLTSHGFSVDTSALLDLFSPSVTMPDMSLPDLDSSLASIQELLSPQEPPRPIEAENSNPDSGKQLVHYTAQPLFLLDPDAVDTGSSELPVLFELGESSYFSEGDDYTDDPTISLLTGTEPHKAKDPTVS

14-3-3 protein gamma = 14-3-3 protein gamma (Homo sapiens, UniProt P61981); test: modulators of 14-3-3 gamma client binding – dose response (AID 711); assay type: functional
[8] = HPDE-C7 pancreatic duct cell viability loss – fluorescence, HTS (AID 430); assay type: functional, cell-based; conditions: Homo sapiens
[9] = viability loss of HPDE-C7K cells – cell-based, fluorescence, HTS, primary screen (AID 431); assay type: functional; conditions: Homo sapiens
Large T antigen = Large T antigen (Simian virus 40, UniProt P03070); assay type: functional, Betapolyomavirus macacae;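 also: Confirmatory-stage PubChem screen for compounds that inhibit SV40 T antigen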
[10] = target: Glucose-6-phosphate 1-dehydrogenase (Homo sapiens, UniProt P11413); test: inhibition of Homo sapiens G6PD, dose series – biochemical, fluorescence, selectivity assay for P. falciparum G6PD inhibitor project, dose response (AID 504792); assay type: functional
[11] = target: T3, Zinc finger protein mex-5 (Caenorhabditis elegans, UniProt Q9XUB2); test: potency of MEX-5 RNA-binding blockers – biochemical, C. elegans, fluorescence polarization, dose response (AID 1960)
T3 sequence (Q9XUB2 whole entry): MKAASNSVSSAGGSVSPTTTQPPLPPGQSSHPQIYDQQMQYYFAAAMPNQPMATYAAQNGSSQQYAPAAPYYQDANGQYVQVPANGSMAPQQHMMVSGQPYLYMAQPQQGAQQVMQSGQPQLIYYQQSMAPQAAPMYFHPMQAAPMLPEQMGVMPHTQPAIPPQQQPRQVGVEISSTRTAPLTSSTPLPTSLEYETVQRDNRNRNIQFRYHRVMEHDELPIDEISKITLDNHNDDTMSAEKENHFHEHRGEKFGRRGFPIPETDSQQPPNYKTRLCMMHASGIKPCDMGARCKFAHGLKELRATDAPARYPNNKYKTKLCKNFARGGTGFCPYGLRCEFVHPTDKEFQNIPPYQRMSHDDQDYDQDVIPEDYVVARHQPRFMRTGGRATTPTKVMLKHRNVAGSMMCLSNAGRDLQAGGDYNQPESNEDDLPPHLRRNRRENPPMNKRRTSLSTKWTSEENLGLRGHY

[12] = target: T4, RNA-binding protein pos-1 (Caenorhabditis elegans, UniProt G5EF15); test: disruptors of C. elegans POS-1 RNA interaction – biochemical, fluorescence polarization, dose response (AID 1964);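 also: purified POS-1 fused to maltose binding protein made in E. coli; potency of compounds blocking POS-1 binding to fluorescent RNA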
T4 sequence (G5EF15 whole entry): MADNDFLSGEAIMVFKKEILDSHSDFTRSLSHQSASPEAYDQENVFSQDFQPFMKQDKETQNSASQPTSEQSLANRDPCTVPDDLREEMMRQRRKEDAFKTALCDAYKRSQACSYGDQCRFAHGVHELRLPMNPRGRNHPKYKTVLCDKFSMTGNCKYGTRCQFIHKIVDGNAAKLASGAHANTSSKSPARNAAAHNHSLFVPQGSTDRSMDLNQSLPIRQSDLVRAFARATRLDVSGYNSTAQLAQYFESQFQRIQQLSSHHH

Estrogen receptor = target: T5, Estrogen receptor (Homo sapiens, UniProt P03372);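 also: potency for inhibiting coactivator peptide recruitment to the receptor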
T5 sequence (P03372 whole entry): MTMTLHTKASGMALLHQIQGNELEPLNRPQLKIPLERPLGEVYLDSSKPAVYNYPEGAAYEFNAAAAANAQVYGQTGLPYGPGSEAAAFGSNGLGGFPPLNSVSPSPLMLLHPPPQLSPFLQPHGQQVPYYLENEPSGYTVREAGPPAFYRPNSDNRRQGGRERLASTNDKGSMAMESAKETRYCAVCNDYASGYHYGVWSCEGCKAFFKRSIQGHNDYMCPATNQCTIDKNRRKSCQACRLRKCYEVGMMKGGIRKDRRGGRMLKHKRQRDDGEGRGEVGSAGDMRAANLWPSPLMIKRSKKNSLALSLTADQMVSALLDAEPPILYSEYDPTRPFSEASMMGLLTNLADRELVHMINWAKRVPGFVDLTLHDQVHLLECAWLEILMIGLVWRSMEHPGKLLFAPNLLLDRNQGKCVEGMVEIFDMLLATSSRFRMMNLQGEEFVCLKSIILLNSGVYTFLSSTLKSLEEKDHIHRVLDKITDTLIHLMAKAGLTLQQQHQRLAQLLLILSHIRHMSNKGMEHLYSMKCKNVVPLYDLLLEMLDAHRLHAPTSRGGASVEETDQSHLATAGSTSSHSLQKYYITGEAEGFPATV

Cytochrome P450 2C19 [13] = target: T1, Cytochrome P450 2C19; test: qHTS Assay for Inhibitors and Substrates of Cytochrome P450 2C19. [Related pubchem assays: 410 ]; assay type: ADME; conditions: read-out: Potency
[14] = target: T6, Rac GTPase-activating protein 1 (Homo sapiens, UniProt Q9H0H5); test: blockers of MgcRacGAP-driven Rac1 GTP hydrolysis – biochemical, ADP Hunter fluorescence, primary and confirmatory, confirmation (AID 624330); assay type: functional
T6 sequence (Q9H0H5 whole entry): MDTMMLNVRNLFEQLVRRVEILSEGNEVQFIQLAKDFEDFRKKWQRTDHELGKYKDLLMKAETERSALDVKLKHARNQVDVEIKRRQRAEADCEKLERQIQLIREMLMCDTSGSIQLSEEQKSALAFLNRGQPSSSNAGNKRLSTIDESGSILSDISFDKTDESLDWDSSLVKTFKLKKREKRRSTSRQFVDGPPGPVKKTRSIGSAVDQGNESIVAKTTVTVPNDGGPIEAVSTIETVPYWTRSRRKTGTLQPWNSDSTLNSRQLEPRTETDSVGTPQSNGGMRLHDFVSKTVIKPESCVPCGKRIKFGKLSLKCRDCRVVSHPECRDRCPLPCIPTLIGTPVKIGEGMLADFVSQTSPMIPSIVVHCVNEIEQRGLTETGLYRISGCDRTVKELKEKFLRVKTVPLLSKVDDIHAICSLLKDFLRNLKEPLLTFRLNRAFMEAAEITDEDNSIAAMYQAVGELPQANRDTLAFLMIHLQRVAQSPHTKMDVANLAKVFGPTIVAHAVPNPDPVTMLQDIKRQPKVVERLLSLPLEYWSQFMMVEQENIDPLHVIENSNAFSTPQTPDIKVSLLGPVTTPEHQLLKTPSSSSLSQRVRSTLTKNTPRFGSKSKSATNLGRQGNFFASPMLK

[15] = target: Alkaline phosphatase, placental type (Homo sapiens, UniProt P05187); test: human placental alkaline phosphatase inhibition – biochemical, luminescence, confirmation (AID 1512); assay type: functional
[16] = target: T7, Alkaline phosphatase, tissue-nonspecific isozyme (Homo sapiens, UniProt P05186); test: potency against alkaline phosphatase TNAP – biochemical, luminescent, dose response, SAR follow-up (AID 1056)
T7 sequence (P05186 whole entry): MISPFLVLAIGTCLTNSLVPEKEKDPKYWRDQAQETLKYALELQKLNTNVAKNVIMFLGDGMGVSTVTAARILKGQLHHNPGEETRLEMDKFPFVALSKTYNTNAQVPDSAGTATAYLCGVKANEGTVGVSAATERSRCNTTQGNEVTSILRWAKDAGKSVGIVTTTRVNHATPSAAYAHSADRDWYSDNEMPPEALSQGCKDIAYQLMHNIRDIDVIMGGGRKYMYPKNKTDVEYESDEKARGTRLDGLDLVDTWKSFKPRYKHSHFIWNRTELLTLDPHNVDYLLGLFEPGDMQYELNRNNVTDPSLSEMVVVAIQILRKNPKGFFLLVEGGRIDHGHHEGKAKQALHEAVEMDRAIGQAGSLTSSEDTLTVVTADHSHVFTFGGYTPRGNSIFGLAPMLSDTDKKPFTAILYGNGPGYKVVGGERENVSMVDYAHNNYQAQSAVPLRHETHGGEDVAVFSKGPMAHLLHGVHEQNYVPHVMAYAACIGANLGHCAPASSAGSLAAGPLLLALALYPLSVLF

[17] = Luminescent dose response cell-based high throughput screening assay for inhibitors of the Janus kinase 2 mutant JAK2V617F. [Related pubchem assays: 1446 (Primary screen.), 1521 (Confirmation assay.), 1486 (Counter screen.)]; assay type: functional
[18] = target: G-protein coupled receptor 55 (Homo sapiens, UniProt Q9Y2T6); test: selective activators of receptor GPR55 – imaging, U2OS cells, beta-arrestin-GFP redistribution, primary screen (AID 1961); assay type: functional
[19] = NIH3T3 cell viability loss – ATP luminescence, mouse fibroblasts, counter-screen, dose response (AID 2010); assay type: functional, cell-based;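 also: cells exposed to compound for about 90 hours before reading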
Vero = test: mammalian cell viability reduction – secondary assay, cytotoxicity control for West Nile virus antiviral project, dose response (AID 1650); assay type: functional; conditions: Chlorocebus sabaeus
[20] = Trypanosoma cruzi growth suppression in host cells – NIH3T3 host cells, beta-gal luminescence, confirmation (AID 2044); assay type: functional, cell-based;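 also: intracellular parasites grown in NIH/3T3 mouse fibroblasts as host cells; luminescent beta-galactosidase reporter signal from transgenic T. cruzi replicating inside host cells; inhibitors lower the luminescence signal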
[21] = target: Heat shock protein HSP 90-alpha (Homo sapiens, UniProt P07900); assay type: functional, organism-based

T1 sequence (P33261 whole entry): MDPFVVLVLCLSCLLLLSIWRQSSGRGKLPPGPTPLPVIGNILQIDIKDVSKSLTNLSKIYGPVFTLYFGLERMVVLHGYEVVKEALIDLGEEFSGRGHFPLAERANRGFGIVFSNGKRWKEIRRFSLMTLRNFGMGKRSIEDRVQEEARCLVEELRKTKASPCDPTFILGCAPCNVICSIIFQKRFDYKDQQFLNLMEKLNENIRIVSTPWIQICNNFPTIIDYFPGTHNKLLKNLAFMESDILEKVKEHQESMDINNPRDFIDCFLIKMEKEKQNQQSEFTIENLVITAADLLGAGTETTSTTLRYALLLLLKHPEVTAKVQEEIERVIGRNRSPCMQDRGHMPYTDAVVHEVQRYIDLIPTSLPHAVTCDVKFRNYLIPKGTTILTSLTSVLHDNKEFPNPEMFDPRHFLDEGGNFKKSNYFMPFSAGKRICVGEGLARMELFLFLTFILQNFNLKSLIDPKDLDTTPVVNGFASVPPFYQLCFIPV
Sequence of Cytochrome P450 2C9 (P11712 whole entry): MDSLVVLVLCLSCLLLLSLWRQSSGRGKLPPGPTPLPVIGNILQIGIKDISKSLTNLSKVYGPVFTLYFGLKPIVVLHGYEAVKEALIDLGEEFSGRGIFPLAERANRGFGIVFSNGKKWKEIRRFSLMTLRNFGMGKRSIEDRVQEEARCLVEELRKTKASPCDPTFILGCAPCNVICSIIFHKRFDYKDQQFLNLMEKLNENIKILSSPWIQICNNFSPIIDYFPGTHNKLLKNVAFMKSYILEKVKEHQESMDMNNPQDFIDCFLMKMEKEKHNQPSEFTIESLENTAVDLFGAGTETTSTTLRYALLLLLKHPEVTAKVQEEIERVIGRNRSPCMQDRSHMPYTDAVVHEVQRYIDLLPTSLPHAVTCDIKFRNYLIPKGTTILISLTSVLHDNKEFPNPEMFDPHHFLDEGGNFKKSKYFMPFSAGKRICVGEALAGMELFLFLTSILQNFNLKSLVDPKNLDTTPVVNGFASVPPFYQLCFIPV
Sequence of Peroxisome proliferator-activated receptor gamma/Nuclear receptor corepressor 2 (P37231 whole entry): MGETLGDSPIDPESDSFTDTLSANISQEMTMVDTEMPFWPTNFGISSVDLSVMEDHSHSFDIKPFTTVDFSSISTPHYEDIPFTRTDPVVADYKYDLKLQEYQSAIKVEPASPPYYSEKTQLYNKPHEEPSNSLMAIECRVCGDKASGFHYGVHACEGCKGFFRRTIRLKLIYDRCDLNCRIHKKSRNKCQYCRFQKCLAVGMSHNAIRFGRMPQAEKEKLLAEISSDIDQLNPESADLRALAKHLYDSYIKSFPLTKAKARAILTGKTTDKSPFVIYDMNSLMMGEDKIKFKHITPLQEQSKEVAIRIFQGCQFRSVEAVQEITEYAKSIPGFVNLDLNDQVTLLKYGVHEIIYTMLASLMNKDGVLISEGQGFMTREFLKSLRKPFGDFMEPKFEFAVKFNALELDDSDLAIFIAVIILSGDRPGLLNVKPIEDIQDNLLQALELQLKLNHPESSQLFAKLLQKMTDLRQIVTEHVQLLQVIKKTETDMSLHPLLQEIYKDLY
Sequence of Peroxisome proliferator-activated receptor gamma/Nuclear receptor corepressor 2 (Q9Y618 whole entry): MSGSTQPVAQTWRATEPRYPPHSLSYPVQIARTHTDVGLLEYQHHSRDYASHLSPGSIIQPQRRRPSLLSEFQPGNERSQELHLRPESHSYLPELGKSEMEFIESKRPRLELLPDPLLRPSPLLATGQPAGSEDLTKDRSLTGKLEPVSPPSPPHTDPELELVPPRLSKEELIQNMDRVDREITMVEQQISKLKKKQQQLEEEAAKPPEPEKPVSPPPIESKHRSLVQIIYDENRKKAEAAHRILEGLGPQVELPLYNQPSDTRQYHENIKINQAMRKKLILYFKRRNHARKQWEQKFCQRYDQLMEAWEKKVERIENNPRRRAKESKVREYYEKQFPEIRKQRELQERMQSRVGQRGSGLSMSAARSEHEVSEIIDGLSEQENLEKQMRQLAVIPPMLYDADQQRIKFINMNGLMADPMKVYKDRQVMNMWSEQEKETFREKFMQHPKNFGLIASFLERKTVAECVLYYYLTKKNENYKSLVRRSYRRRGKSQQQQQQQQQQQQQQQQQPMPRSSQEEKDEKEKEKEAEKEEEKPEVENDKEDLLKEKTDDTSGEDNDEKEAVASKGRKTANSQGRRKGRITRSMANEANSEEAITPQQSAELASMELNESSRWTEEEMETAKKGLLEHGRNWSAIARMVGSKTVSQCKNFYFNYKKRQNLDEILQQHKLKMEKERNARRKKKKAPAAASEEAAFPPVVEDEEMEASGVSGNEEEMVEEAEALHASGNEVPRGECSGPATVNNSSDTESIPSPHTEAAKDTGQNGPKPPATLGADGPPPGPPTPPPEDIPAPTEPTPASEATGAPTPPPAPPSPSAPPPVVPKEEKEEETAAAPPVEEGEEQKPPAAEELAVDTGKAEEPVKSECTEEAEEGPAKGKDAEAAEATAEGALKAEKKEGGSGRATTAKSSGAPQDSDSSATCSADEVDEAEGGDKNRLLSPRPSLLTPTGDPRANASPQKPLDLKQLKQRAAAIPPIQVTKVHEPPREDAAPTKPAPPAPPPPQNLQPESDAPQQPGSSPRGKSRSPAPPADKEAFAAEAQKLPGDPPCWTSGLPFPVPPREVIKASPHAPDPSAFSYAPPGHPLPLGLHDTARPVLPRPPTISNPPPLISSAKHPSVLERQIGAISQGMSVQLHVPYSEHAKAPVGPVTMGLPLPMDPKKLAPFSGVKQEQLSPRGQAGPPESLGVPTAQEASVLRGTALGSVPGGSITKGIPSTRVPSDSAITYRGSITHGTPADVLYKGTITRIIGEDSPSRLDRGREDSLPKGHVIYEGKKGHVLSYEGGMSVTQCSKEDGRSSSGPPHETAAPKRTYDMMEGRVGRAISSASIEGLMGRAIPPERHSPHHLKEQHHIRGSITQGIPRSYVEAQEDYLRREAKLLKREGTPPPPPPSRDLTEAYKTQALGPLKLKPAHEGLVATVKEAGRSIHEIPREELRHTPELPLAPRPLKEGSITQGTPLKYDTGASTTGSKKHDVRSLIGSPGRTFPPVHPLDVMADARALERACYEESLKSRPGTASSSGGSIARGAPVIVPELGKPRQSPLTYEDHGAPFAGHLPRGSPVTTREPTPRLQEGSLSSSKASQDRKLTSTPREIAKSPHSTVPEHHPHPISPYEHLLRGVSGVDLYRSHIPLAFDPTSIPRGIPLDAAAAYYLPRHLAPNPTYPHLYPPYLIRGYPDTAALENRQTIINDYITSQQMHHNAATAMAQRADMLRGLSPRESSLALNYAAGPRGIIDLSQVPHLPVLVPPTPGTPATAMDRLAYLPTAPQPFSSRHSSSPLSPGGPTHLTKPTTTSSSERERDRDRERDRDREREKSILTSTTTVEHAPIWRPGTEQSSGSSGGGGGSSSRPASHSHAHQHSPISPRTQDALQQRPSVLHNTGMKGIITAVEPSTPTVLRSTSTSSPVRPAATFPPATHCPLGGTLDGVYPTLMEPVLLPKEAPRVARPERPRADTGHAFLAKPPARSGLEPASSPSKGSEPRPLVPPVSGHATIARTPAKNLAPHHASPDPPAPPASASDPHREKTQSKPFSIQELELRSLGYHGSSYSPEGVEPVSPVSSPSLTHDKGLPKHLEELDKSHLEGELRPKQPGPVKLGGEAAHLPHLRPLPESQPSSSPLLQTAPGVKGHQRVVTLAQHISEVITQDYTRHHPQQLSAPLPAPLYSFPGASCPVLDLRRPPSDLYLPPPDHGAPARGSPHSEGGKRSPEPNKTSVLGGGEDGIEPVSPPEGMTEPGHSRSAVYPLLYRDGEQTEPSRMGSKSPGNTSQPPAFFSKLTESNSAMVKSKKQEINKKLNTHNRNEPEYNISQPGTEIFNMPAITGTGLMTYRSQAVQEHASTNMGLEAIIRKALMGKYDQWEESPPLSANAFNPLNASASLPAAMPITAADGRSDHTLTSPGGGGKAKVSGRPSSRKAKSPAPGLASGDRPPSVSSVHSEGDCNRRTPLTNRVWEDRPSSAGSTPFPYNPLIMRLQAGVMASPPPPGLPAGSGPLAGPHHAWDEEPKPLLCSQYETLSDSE
Sequence of Alkaline phosphatase, placental type (P05187 whole entry): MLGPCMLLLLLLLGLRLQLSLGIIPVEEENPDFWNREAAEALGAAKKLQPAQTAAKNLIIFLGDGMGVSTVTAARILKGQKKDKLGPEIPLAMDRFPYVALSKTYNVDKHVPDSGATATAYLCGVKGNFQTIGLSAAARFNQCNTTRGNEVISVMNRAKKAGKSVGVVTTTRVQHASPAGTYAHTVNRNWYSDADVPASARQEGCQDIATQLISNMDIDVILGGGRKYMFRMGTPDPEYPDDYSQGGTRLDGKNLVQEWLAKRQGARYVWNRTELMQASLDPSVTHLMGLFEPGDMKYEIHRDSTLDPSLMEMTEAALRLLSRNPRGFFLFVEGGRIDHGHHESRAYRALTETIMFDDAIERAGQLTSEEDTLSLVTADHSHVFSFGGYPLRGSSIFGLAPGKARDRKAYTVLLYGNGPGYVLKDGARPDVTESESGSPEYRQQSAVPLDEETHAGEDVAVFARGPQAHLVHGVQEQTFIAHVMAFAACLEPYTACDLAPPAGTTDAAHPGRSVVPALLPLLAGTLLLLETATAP
Sequence of G-protein coupled receptor 55 (Q9Y2T6 whole entry): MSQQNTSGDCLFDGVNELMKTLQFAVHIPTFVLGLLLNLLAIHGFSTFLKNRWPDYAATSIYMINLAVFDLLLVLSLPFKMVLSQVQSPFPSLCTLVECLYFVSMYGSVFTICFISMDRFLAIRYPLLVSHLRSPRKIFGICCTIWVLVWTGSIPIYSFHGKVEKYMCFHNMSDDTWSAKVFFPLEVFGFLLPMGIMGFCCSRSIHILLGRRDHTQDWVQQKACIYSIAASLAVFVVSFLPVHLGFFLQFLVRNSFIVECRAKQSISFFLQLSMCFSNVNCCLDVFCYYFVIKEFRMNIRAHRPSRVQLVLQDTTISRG

Structure (SMILES): CC(Cc1ccc(O)c(O)c1)C(C)Cc1ccc(O)c(O)c1 (stereo unspecified) [NORDIHYDROGUAIARETIC ACID]
- EC50 [7]: 2.32 µM (active)
- IC50 (14-3-3 protein gamma): > 50 µM (not active)
- EC50 [8]: 9.48 µM (active)
- EC50 [9]: 11.2 µM (active)
- IC50 (Large T antigen): 21.9 µM (active)
- IC50 [10]: > 80 µM (inactive)
- EC50 [11]: 8.75 µM (active)
- EC50 [12]: 26.1 µM (active)
- IC50 (Estrogen receptor): 22.2 µM (active)

Structure (SMILES): O=C(CSc1nnnn1-c1ccc(F)cc1)c1ccc(O)c(O)c1
- IC50 [14]: 80.6 µM (active)
- IC50 [15]: 1.89 µM (active)
- IC50 [16]: 5.98 µM (active)
- IC50 [17]: 2.16 µM (active)

Structure (SMILES): CC(=O)Nc1ccc(Nc2cc(C(C)C)nc3c(-c4ccccc4)c(C)nn23)cc1
- EC50 [18]: > 32 µM (inactive)
- EC50 [19]: 10.4 µM (active)
- CC50 (Vero): > 100 µM (active)
- EC50 [20]: 0.211 µM (active)
- AC50 [21]: 3.84 µM (active)

Next, values leading:

- IC50 [1]: > 39.8 µM (not active)
- AC50 (Cytochrome P450 2C9): inconclusive
- IC50 [2]: 17.9 µM (inactive)
- AC50 (Cytochrome P450 2C19 [3]): inconclusive
- IC50 [4]: > 39.8 µM (not active)
Structure (SMILES): O=C(Nc1ccc(-c2cc3ccccc3oc2=O)c(Cl)c1)c1cccnc1

- IC50 [5]: > 50 µM (not active)
- IC50 [6]: > 50 µM (not active)
Structure (SMILES): Cc1cc(-c2csc(Nc3ccc(C#N)cc3)n2)c(C)n1C

- AC50 (Cytochrome P450 2C19 [13]): 0.794 µM (inconclusive)
Structure (SMILES): CC(=O)c1ccc(C2C=CC(Oc3ccc(-c4ccccc4)cc3)C(CO)O2)cc1 (stereo unspecified)
